Experimental data reported in PubChem BioAssay AID504627 (NMMLSC, 2011).
Calls of active or inactive are those of the source.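 Rule for the calls: active = polarization drop versus untreated control wells larger than 25 mP; inactive = the rest.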

Columns and labels:
Test in all cases: BclXL, Bcl2, Bfl1, BclB binding displacement – biochemical, fluorescence polarization, powder compounds set 1, panel, dose response (AID 504627)
[1] = target: Bcl-2-like protein 10 (Homo sapiens) (UniProt Q9HD36); conditions: GST-Bcl-2 family protein, FITC-peptide fluorescence polarization, BclB; for polarization signal (mP), lower = inhibition: at 50 µM (top of the series)
Chain of Bcl-2-like protein 10 (Homo sapiens) (Q9HD36 whole entry, looked up): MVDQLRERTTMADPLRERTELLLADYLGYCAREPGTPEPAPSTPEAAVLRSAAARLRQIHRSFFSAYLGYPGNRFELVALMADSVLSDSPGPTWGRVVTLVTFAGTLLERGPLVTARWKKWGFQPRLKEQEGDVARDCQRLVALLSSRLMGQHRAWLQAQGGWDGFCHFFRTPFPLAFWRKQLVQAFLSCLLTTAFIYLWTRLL

[2] = target: Bcl-2-related protein A1 (Homo sapiens) (UniProt Q16548); conditions: GST-Bcl-2 family protein, FITC-peptide fluorescence polarization, Bfl1; for polarization signal (mP), lower = inhibition: at 50 µM (top of the series)
Chain of Bcl-2-related protein A1 (Homo sapiens) (Q16548 whole entry, looked up): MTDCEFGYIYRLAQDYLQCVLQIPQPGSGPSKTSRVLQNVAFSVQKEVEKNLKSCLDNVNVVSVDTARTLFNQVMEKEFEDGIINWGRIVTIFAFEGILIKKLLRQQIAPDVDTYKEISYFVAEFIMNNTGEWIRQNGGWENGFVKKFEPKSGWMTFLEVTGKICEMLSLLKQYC

[3] = target: Bcl-2-like protein 1 (Homo sapiens) (UniProt Q07817); conditions: GST-Bcl-2 family protein, FITC-peptide fluorescence polarization, BclXL; for polarization signal (mP), lower = inhibition: at 50 µM (top of the series)
Chain of Bcl-2-like protein 1 (Homo sapiens) (Q07817 whole entry, looked up): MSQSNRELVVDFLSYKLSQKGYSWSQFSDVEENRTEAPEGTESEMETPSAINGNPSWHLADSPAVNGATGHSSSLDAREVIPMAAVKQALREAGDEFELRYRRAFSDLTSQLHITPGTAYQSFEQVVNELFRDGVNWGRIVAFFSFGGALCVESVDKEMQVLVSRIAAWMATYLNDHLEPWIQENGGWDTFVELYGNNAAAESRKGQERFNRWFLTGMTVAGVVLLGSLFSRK

[4] = target: Apoptosis regulator Bcl-2 (Homo sapiens) (UniProt P10415); conditions: GST-Bcl-2 family protein, FITC-peptide fluorescence polarization, Bcl2; for polarization signal (mP), lower = inhibition: at 50 µM (top of the series)
Chain of Apoptosis regulator Bcl-2 (Homo sapiens) (P10415 whole entry, looked up): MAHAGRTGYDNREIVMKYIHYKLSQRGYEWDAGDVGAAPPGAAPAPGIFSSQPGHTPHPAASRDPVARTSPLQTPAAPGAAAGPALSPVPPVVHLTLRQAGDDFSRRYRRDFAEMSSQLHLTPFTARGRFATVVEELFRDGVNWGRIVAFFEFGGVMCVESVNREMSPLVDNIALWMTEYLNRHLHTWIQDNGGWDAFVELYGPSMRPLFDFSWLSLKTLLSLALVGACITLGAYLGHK

| SMILES | polarization signal (mP), lower = inhibition [1] | polarization signal (mP), lower = inhibition [2] | polarization signal (mP), lower = inhibition [3] | polarization signal (mP), lower = inhibition [4] | IC50 [1] [nM] | IC50 [2] [nM] | IC50 [3] [µM] | IC50 [4] [µM] |
| --- | --- | --- | --- | --- | --- | --- | --- | --- |
| Cc1cc(-c2cc(-c3ccc(Cl)cc3)nc(N)c2C#N)co1 | inactive | inactive | inactive | inactive |  |  |  |  |
| Cc1ccc(C=NNC(=O)CSc2nnc(-c3ccc(Cl)cc3)n2-c2ccccc2)o1 |  | inactive | inactive | inactive | 8580 |  |  |  |
| Cc1ccc(-c2cc(-c3ccc(C)o3)nc(N)c2C#N)cc1 | inactive | inactive | inactive | inactive |  |  |  |  |
| Cc1ccc(-c2cc(-c3ccc(F)cc3)c(C#N)c(N)n2)o1 | inactive | inactive | inactive | inactive |  |  |  |  |
| O=C1C(Cl)=C(N2CCN(c3ccccc3[N+](=O)[O-])CC2)C(=O)c2ccccc21 |  |  |  |  | 3990 | 2730 | 4.4 | 5.64 |
| CNC(CC(=O)c1ccc([N+](=O)[O-])cc1)C(Cl)(Cl)Cl (stereo not given) | inactive | inactive | inactive | inactive |  |  |  |  |
| Oc1ccc(NCc2ccccc2OCc2ccccc2)cc1 | inactive | inactive | inactive | inactive |  |  |  |  |
| COc1ccccc1-n1c(-c2ccccc2)c[nH]c1=S | inactive | inactive | inactive | inactive |  |  |  |  |
| O=C1NC(=O)C2(Cc3c(nc4ccccn4c3=O)N3CCCCCC32)C(=O)N1Cc1ccccc1 (stereo not given) |  | inactive | inactive | inactive | 1160 |  |  |  |
| O=c1c2c(n3nnnc3n1Cc1ccccc1)-c1ccccc1CC21CCCC1 |  | inactive | inactive | inactive | 1130 |  |  |  |
